From ChEMBL document CHEMBL1139599, “Benzothieno[3,2-b]indole derivatives as potent selective estrogen receptor modulators” (Bioorg Med Chem Lett, 2005) come the findings set out here.

One test deals with Estrogen receptor beta (Homo sapiens, UniProt Q92731). The experiment in a line: Inhibition of [3H]17-beta-estradiol binding to human estrogen receptor beta.
The target in a further test is T1, Estrogen receptor (Homo sapiens, UniProt P03372).
T1 sequence (P03372 whole entry): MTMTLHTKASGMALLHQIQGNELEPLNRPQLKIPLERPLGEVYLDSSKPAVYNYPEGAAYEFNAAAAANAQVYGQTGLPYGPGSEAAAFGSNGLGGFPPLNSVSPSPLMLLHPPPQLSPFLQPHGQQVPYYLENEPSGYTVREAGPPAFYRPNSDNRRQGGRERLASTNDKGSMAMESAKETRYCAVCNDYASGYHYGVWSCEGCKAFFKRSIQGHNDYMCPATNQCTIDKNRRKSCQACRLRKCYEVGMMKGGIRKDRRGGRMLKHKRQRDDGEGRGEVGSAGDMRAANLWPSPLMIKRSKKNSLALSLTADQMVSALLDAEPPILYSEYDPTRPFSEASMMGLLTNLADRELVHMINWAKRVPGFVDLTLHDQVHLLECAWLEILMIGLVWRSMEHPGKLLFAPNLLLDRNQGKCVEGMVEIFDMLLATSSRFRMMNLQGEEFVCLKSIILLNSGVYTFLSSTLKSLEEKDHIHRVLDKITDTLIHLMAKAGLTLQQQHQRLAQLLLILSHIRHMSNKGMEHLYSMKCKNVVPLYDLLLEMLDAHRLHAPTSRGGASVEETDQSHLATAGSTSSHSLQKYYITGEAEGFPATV
The experiment in a line: Inhibition of [3H]17-beta-estradiol binding to human estrogen receptor alpha.

Test [1] deals with T2, Estrogen receptor (Mus musculus) (UniProt O08537+P19785). Particulars: Uterus.
Description: Uterine wet weight in ovariectomized mice after 4 weeks of subcutaneous administration at 4 umol/kg (n=5)
For test [2], the target named is T2, Estrogen receptor (Mus musculus).

Sequence of Estrogen receptor beta (Q92731 whole entry): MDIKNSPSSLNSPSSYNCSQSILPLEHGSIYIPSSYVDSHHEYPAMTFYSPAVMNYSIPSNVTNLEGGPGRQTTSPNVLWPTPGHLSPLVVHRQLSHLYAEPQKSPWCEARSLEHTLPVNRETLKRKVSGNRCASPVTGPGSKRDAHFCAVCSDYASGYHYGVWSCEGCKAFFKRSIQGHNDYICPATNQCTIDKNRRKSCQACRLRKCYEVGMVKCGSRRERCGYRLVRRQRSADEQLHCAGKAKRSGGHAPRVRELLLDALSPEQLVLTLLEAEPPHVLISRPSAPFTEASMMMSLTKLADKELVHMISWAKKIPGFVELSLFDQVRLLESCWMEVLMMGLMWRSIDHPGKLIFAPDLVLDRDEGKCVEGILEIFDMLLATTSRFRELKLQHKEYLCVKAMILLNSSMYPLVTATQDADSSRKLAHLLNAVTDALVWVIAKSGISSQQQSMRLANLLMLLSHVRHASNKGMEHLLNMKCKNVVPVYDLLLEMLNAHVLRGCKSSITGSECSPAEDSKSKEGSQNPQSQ
T2 sequence (O08537 whole entry, looked up): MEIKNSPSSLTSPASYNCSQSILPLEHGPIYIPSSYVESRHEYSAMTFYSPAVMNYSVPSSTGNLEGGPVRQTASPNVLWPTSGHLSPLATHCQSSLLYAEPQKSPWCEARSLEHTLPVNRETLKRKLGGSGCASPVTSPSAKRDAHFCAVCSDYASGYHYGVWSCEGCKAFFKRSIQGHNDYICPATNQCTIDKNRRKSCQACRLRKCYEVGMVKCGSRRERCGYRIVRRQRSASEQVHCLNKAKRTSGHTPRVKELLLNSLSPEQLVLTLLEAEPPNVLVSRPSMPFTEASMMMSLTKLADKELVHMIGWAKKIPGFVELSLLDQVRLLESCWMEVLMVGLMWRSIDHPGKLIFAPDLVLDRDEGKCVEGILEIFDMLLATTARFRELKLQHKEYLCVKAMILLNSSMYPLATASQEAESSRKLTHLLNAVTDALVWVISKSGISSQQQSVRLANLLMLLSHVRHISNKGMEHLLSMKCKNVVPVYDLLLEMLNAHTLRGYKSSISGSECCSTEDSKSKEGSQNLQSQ
T2 sequence (P19785 whole entry, looked up): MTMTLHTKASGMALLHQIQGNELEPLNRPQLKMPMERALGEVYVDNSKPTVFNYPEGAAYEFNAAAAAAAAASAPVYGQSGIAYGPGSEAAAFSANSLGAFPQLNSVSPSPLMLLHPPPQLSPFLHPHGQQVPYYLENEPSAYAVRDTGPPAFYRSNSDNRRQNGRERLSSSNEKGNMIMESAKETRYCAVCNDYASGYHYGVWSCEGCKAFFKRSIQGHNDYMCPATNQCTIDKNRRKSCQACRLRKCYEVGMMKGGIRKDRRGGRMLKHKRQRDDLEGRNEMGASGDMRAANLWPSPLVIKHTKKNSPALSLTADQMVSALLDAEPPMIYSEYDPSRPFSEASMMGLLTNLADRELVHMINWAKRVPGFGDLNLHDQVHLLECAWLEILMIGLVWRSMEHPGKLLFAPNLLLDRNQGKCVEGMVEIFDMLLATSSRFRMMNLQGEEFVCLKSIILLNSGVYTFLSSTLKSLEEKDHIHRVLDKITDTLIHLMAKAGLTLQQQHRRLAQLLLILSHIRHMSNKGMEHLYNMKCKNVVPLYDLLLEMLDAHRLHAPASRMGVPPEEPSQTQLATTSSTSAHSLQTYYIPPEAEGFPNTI

On to `CCN(CC)CCOc1ccc(Cn2c3ccc(O)cc3c3sc4cc(O)ccc4c32)cc1`, for which the IC50 came to 0.0164 µM on Estrogen receptor beta and 0.0312 µM on Estrogen receptor. The Wet weight in test [1] was 37.7 mg. Besides, in test [2], the BMD came out at 479 mg/cm3.

Take `Oc1ccc2c(c1)sc1c3cc(O)ccc3n(Cc3ccc(OCCN4CCCC4)cc3)c21`: the IC50 at Estrogen receptor beta stood at 0.0202 µM; on Estrogen receptor, 0.006 µM. Moreover, the Wet weight in test [1] worked out at 30.7 mg. For the same compound, the BMD in test [2] came out at 469 mg/cm3.

As to `Oc1ccc2c(c1)sc1c3ccccc3n(Cc3ccc(OCCN4CCOCC4)cc3)c21`, the IC50 at Estrogen receptor beta came to 0.215 µM; on Estrogen receptor it was 0.126 µM. Further, the Wet weight in test [1] is 27 mg. In addition, in test [2], the BMD was 455 mg/cm3.

`Oc1ccc2c(c1)sc1c3ccccc3n(Cc3ccc(OCCN4CCCCCC4)cc3)c21`: the IC50 on Estrogen receptor beta was 0.0166 µM; at Estrogen receptor, 0.018 µM. Further, the Wet weight in test [1] came out at 28.5 mg. In test [2], this compound registered a BMD of 444 mg/cm3.

Consider `Oc1ccc2c(c1)sc1c3cc(O)ccc3n(Cc3ccc(OCCN4CCCCCC4)cc3)c21`, for which the IC50 on Estrogen receptor beta was 0.00726 µM; at Estrogen receptor, 0.00334 µM. In test [1], this compound had a Wet weight of 44.2 mg. In addition, in test [2], the BMD amounted to 534 mg/cm3.

Regarding `Oc1ccc2c(c1)sc1c3cc(O)ccc3n(Cc3ccc(OCCN4CCCCC4)cc3)c21`, the results for the IC50 on Estrogen receptor beta and on Estrogen receptor were 0.011 µM and 0.00284 µM, respectively. The Wet weight in test [1] worked out at 44.2 mg. Also, in test [2], the BMD stood at 548 mg/cm3.

For `CCN(CC)CCOc1ccc(Cn2c3ccccc3c3sc4cc(O)ccc4c32)cc1`, the IC50 is 0.025 µM at Estrogen receptor beta and 0.0574 µM on Estrogen receptor. For the same compound, in test [1], the Wet weight came to 34.9 mg. In test [2], this compound showed a BMD of 448 mg/cm3.

As to `CN(C)CCOc1ccc(Cn2c3ccccc3c3sc4cc(O)ccc4c32)cc1`, the IC50 on Estrogen receptor beta turned out to be 0.0456 µM; on Estrogen receptor, 0.0514 µM. Moreover, in test [1], the Wet weight is 28.2 mg. The compound also had a BMD in test [2] of 474 mg/cm3.

With `CN(C)CCOc1ccc(Cn2c3ccc(O)cc3c3sc4cc(O)ccc4c32)cc1`, the IC50 was 0.031 µM on Estrogen receptor beta and 0.018 µM on Estrogen receptor. This compound displayed a Wet weight in test [1] of 26.2 mg. The BMD in test [2] was 480 mg/cm3.

For `Oc1ccc2c(c1)sc1c3ccccc3n(Cc3ccc(OCCN4CCCCC4)cc3)c21`, the IC50 on Estrogen receptor beta was 0.035 µM; on Estrogen receptor, 0.039 µM. The compound further yielded a Wet weight in test [1] of 34 mg. The same compound yielded a BMD in test [2] of 436 mg/cm3.

For the compound `Oc1ccc2c(c1)sc1c3cc(O)ccc3n(Cc3ccc(OCCN4CCOCC4)cc3)c21`, the IC50 was found to be 0.0214 µM on Estrogen receptor beta and 0.01 µM at Estrogen receptor. Further, in test [1], the Wet weight was 26.3 mg. The same compound showed a BMD in test [2] of 470 mg/cm3.

With `Oc1ccc2c(c1)sc1c3ccccc3n(Cc3ccc(OCCN4CCCC4)cc3)c21`, the results for the IC50 at Estrogen receptor beta and on Estrogen receptor were 0.0539 µM and 0.0272 µM, respectively. In test [1], this compound showed a Wet weight of 27.6 mg. The compound also returned a BMD in test [2] of 505 mg/cm3.
